Measured values taken from the supplement of paper PMC10307832.

What was measured:
Experiment in all cases: relative viability (nuclei count vs DMSO), 5 days (fraction); higher = more cells survive
ChaGo-K-1 = system: ChaGo-K-1
How it was run: (§1)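 Lung cancer cell lines were pin-tool dosed in 1536-well plates on the day after seeding, with either a lone drug or a fixed anchor-drug dose plus five library-drug doses (not always all listed) in √10 steps. Nuclei were counted on 4× images after 5 days. Relative viability is the ratio of treated-well to vehicle-well nuclei counts, with each value a median of duplicate plates.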

EKVX = system: EKVX
How it was run: as §1

EMC-BAC-2 = system: EMC-BAC-2
How it was run: as §1

H3255 = system: H3255
How it was run: as §1

HARA = system: HARA
How it was run: as §1

HCC-15 = system: HCC-15
How it was run: as §1

HCC-827 = system: HCC-827
How it was run: as §1

LC-2-ad = system: LC-2-ad
How it was run: as §1

LCLC-97TM1 = system: LCLC-97TM1
How it was run: as §1

LU99A = system: LU99A
How it was run: as §1

NCI-H1437 = system: NCI-H1437
How it was run: as §1

NCI-H1792 = system: NCI-H1792
How it was run: as §1

NCI-H1793 = system: NCI-H1793
How it was run: as §1

NCI-H1915 = system: NCI-H1915
How it was run: as §1

NCI-H1944 = system: NCI-H1944
How it was run: as §1

NCI-H2126 = system: NCI-H2126
How it was run: as §1

NCI-H23 = system: NCI-H23
How it was run: as §1

NCI-H322M = system: NCI-H322M
How it was run: as §1

NCI-H441 = system: NCI-H441
How it was run: as §1

NCI-H460 = system: NCI-H460
How it was run: as §1

NCI-H661 = system: NCI-H661
How it was run: as §1

PC-3 [JPC-3] = system: PC-3 [JPC-3]
How it was run: as §1

SK-LU-1 = system: SK-LU-1
How it was run: as §1

Question: Which results are given for `O=C(O)CCCCC(CCSCc1ccccc1)SCc1ccccc1` (centres undefined) [CPI-613] + CS(=O)(=O)N1CCN(Cc2cc3nc(-c4cccc5[nH]ncc45)nc(N4CCOCC4)c3s2)CC1 [Pictilisib] (partner 1 µM)?
Answer: relative viability (ChaGo-K-1; first compound 5 µM): 0.519; relative viability (ChaGo-K-1; first compound 15.81 µM): 0.663; relative viability (ChaGo-K-1; first compound 50 µM): 0.707; relative viability (ChaGo-K-1; first compound 158.11 µM): 0.612; relative viability (ChaGo-K-1; first compound 500 µM): 0.33; relative viability (EKVX; first compound 5 µM): 0.43; relative viability (EKVX; first compound 15.81 µM): 0.451; relative viability (EKVX; first compound 50 µM): 0.509; relative viability (EKVX; first compound 158.11 µM): 0.415; relative viability (EKVX; first compound 500 µM): 0.406; relative viability (EMC-BAC-2; first compound 5 µM): 0.549; relative viability (EMC-BAC-2; first compound 15.81 µM): 0.483; relative viability (EMC-BAC-2; first compound 50 µM): 0.556; relative viability (EMC-BAC-2; first compound 158.11 µM): 0.556; relative viability (EMC-BAC-2; first compound 500 µM): 0.133; relative viability (H3255; first compound 5 µM): 0.512; relative viability (H3255; first compound 15.81 µM): 0.462; relative viability (H3255; first compound 50 µM): 0.452; relative viability (H3255; first compound 158.11 µM): 0.472; relative viability (H3255; first compound 500 µM): 0.43; relative viability (HARA; first compound 5 µM): 0.474; relative viability (HARA; first compound 15.81 µM): 0.409; relative viability (HARA; first compound 50 µM): 0.281; relative viability (HARA; first compound 158.11 µM): 0.242; relative viability (HARA; first compound 500 µM): 0.084; relative viability (HCC-15; first compound 5 µM): 0.604; relative viability (HCC-15; first compound 15.81 µM): 0.664; relative viability (HCC-15; first compound 50 µM): 0.603; relative viability (HCC-15; first compound 158.11 µM): 0.629; relative viability (HCC-15; first compound 500 µM): 0.238; relative viability (HCC-827; first compound 5 µM): 0.94; relative viability (HCC-827; first compound 15.81 µM): 0.964; relative viability (HCC-827; first compound 50 µM): 0.887; relative viability (HCC-827; first compound 158.11 µM): 0.833; relative viability (HCC-827; first compound 500 µM): 0.79; relative viability (LC-2-ad; first compound 5 µM): 0.455; relative viability (LC-2-ad; first compound 15.81 µM): 0.427; relative viability (LC-2-ad; first compound 50 µM): 0.473; relative viability (LC-2-ad; first compound 158.11 µM): 0.211; relative viability (LC-2-ad; first compound 500 µM): 0.0075; relative viability (LCLC-97TM1; first compound 5 µM): 0.191; relative viability (LCLC-97TM1; first compound 15.81 µM): 0.164; relative viability (LCLC-97TM1; first compound 50 µM): 0.174; relative viability (LCLC-97TM1; first compound 158.11 µM): 0.192; relative viability (LCLC-97TM1; first compound 500 µM): 0.0531; relative viability (LU99A; first compound 5 µM): 0.289; relative viability (LU99A; first compound 15.81 µM): 0.322; relative viability (LU99A; first compound 50 µM): 0.339; relative viability (LU99A; first compound 158.11 µM): 0.256; relative viability (LU99A; first compound 500 µM): 0.0798; relative viability (NCI-H1437; first compound 5 µM): 0.433; relative viability (NCI-H1437; first compound 15.81 µM): 0.286; relative viability (NCI-H1437; first compound 50 µM): 0.435; relative viability (NCI-H1437; first compound 158.11 µM): 0.181; relative viability (NCI-H1437; first compound 500 µM): 0.0176; relative viability (NCI-H1792; first compound 5 µM): 0.29; relative viability (NCI-H1792; first compound 15.81 µM): 0.229; relative viability (NCI-H1792; first compound 50 µM): 0.272; relative viability (NCI-H1792; first compound 158.11 µM): 0.23; relative viability (NCI-H1792; first compound 500 µM): 0.207; relative viability (NCI-H1793; first compound 5 µM): 0.248; relative viability (NCI-H1793; first compound 50 µM): 0.266; relative viability (NCI-H1793; first compound 158.11 µM): 0.205; relative viability (NCI-H1793; first compound 500 µM): 0.0326; relative viability (NCI-H1915; first compound 5 µM): 0.988; relative viability (NCI-H1915; first compound 15.81 µM): 0.719; relative viability (NCI-H1915; first compound 50 µM): 0.908; relative viability (NCI-H1915; first compound 158.11 µM): 0.927; relative viability (NCI-H1915; first compound 500 µM): 0.503; relative viability (NCI-H1944; first compound 5 µM): 0.336; relative viability (NCI-H1944; first compound 15.81 µM): 0.371; relative viability (NCI-H1944; first compound 50 µM): 0.351; relative viability (NCI-H1944; first compound 158.11 µM): 0.347; relative viability (NCI-H1944; first compound 500 µM): 0.332; relative viability (NCI-H2126; first compound 5 µM): 0.539; relative viability (NCI-H2126; first compound 15.81 µM): 0.457; relative viability (NCI-H2126; first compound 50 µM): 0.499; relative viability (NCI-H2126; first compound 158.11 µM): 0.395; relative viability (NCI-H2126; first compound 500 µM): 0.393; relative viability (NCI-H23; first compound 5 µM): 0.478; relative viability (NCI-H23; first compound 15.81 µM): 0.455; relative viability (NCI-H23; first compound 50 µM): 0.457; relative viability (NCI-H23; first compound 158.11 µM): 0.153; relative viability (NCI-H23; first compound 500 µM): 0.009; relative viability (NCI-H322M; first compound 5 µM): 0.511; relative viability (NCI-H322M; first compound 15.81 µM): 0.426; relative viability (NCI-H322M; first compound 50 µM): 0.496; relative viability (NCI-H322M; first compound 158.11 µM): 0.469; relative viability (NCI-H322M; first compound 500 µM): 0.53; relative viability (NCI-H441; first compound 5 µM): 0.498; relative viability (NCI-H441; first compound 15.81 µM): 0.468; relative viability (NCI-H441; first compound 50 µM): 0.417; relative viability (NCI-H441; first compound 158.11 µM): 0.147; relative viability (NCI-H441; first compound 500 µM): 0.0254; relative viability (NCI-H460; first compound 5 µM): 0.353; relative viability (NCI-H460; first compound 15.81 µM): 0.315; relative viability (NCI-H460; first compound 50 µM): 0.347; relative viability (NCI-H460; first compound 158.11 µM): 0.419; relative viability (NCI-H460; first compound 500 µM): 0.342; relative viability (NCI-H661; first compound 5 µM): 0.36; relative viability (NCI-H661; first compound 15.81 µM): 0.428; relative viability (NCI-H661; first compound 50 µM): 0.442; relative viability (NCI-H661; first compound 158.11 µM): 0.355; relative viability (NCI-H661; first compound 500 µM): 0.367; relative viability (PC-3 [JPC-3]; first compound 5 µM): 0.683; relative viability (PC-3 [JPC-3]; first compound 15.81 µM): 0.617; relative viability (PC-3 [JPC-3]; first compound 50 µM): 0.656; relative viability (PC-3 [JPC-3]; first compound 158.11 µM): 0.636; relative viability (PC-3 [JPC-3]; first compound 500 µM): 0.404; relative viability (SK-LU-1; first compound 5 µM): 0.533; relative viability (SK-LU-1; first compound 15.81 µM): 0.428; relative viability (SK-LU-1; first compound 50 µM): 0.49; relative viability (SK-LU-1; first compound 158.11 µM): 0.46; relative viability (SK-LU-1; first compound 500 µM): 0.264
